Data published in patent US7491701B2, “Peptides that bind to HSP90 proteins” (Boys Town National Research Hospital, priority 2004, dated 2009).
Where no end group is shown, it is not given here.

Tests used:
[1] = background; geldanamycin Phase I clinical trials; cited from earlier work
[2] = background; cited from earlier work
beta-COP = test: Binding of beta-COP from mouse brain extract to Sulfolink-peptide affinity matrix, western analysis; conditions: FIG. 1B; for amount of beta-COP binding the peptide matrix: western with antibody to beta-COP; for amount of beta-COP bound by the di-serine control relative to the parent di-lysine peptide matrix: western, 672 BC1 vs OTOF CTERM E47, 670 CC1 vs OTOF CTERM E48
Procedure: Antibody to beta-COP was obtained from Oncogene Research Products (EMD Biosciences, Ind.) (Product No. PC175) and used at a 1:1500 dilution. Antibody to mouse Hsp90α was obtained from Stressgen (Victoria, Canada), Product No. SPS-771 and used at a 1:1000 dilution.
(§1) Sulfolink-peptide affinity columns were synthesized using the Sulpholink Kit (Pierce Biotechnology, Inc., Rockford, Ill., Product No. 44895) according to their protocol. Peptides were stored at 4° C. in a lyophilized state in a sealed desiccator. Approximately 2 mg of peptide is weighed and suspended in 0.4 ml of DMSO. This peptide solution is immediately diluted into 2 ml of coupling buffer and mixed (100 μl is removed for quantization) then added to 4 ml of a 50% slurry of Sulfolink gel equilibrated in coupling buffer in a small plastic column. The combination is mixed for 15 minutes at room temperature by rotation. The mixture is further incubated for 30 minutes at room temperature without mixing. The column is washed with coupling buffer, then blocked with freshly made 0.5 M cysteine, further washed with a Wash buffer. The peptide affinity matrix was removed from the column to a 50 ml conical tube and stored as a 50% slurry in PBS containing 0.05% sodium azide at 4° C.
Total mouse brain from deeply anthesized adult mice is excised and flash frozen in liquid nitrogen and stored at −80° C. The frozen brain is pulverized in a mortar and pestle under liquid nitrogen and suspended in TNGD (TRIS 50 mM pH7.5, NaCl 75 mM, EGTA 10 mM, EDTA 2 mM) with protease inhibitors (10 μl/ml of protease inhibitor cocktail for mammalian cells, Sigma Chemical Co. No. P8340) at 1 ml/100 mg of tissue. This mixture is homogenized in a Potter-Elvehjem Teflon glass homogenizer on ice. The homogenate is centrifuged for 10 minutes at 4° C. in an IEC minifuge at 13,200 RPM. The pellet is discarded. The supernatant is used immediately or frozen and stored at −80° C.
All steps of protein purification were done at 4° C. in a Handee Spin Cup Column (Pierce Biotechnology, Inc., Rockford, Ill., Product No. 69700) in the presence of protease inibitor (10 μl/ml of protease inhibitor cocktail for mammalian cells, Sigma Chemical Co. No. P8340). Fifty μl of a 50% slurry of Sulfolink-peptide was washed five times with 0.4 ml of TNGD. Mouse brain extract supernatant (100 μl) was allowed to absorb to the gel by mixing by rotation for 30 minutes. Following absorption the gel is washed five times with 0.4 ml TNGD. Specific elution is described in the results.
Protein samples are made 1× with ImmunoPure Lane Marker Non-Reducing Sample Buffer (5×) (Pierce Biotechnology) and heated for 5 minutes at 95° C. Samples are separated on a 4-20% Linear Gradient Ready Gel (BIO-RAD Laboratories, Hercules, Calif., Product No. 161-1105). Polyacrylamide gels are stained with BIORAD Silver Stain Plus Kit (No. 161-0449) or Bio-Safe Coomassie Stain or electro-blotted to PVDF membrane (BIO-RAD) for Western blot analysis, according to directions provided by the manufacturer. Specific antibody binding is detected using ECL Western Blotting System (Amersham Biosciences Corp., Piscataway, N.J., Product No. RPN2108). Molecular weight standards used were the BIO-RAD Precision Protein Standards, Prestained, Broad Range (Product No. 161-0372). Chemiluminecence is detected using Kodak Biomax ML Scientific Imaging Film (Product No. 868-9358).
Mouse brain extracts were absorbed to the four peptide matrix columns as described in the methods. Column matrix was transferred to PCR tubes and made 1× with SDS buffer and heated for 5 minutes at 95° C. After heating the samples were centrifuged for 1 minute at 300×g and the supernatant separated by SDS gel electrophoresis on two separate gels.

recombinant human Hsp90α = biological target: T1, recombinant human Hsp90α (Homo sapiens, UniProt P07900); test: Binding of purified recombinant human Hsp90α to peptide affinity columns, 600 mM NaCl elution, silver stain; conditions: for binding of Hsp90α to the peptide affinity column: 400 ng recombinant human Hsp90α, BSA-preabsorbed column, 4° C., silver stain, FIG. 5; for protein corresponding to Hsp90 molecular weight eluted with 600 mM NaCl, share of protein added: scan of silver stained gel, elution with TNGD + 600 mM NaCl
T1 construct: purchased Stressgen SPP-776
Procedure: Fifty μl of 50% slurry of OTOF CTERM E47 and OTOF CTERM E48 Sulfolink affinity matrix were equilibrated with four washes of 0.4 ml of TNGD buffer in Handee Spin Cup Columns (Pierce, Rockford). The columns was preabsorbed with 100 μl of 10% BSA for 30 minutes at 4° C. and mixed by rotation. The columns were then washed five times with 0.4 ml of TNGD. Four hundred (400) ng of recombinant human Hsp90α (Stressgen SPP-776, Lot No. B201401) in 100 μl of TNGD was added to each column for 30 minutes at 4° C. and mixed by rotation. The unabsorbed protein was removed by centrifugation. The columns were washed five times with 0.4 ml of TNGD, then eluted with 100 μl TNGD+600 mM NaCl. Samples were analyzed on a 4-20% SDS-PAGE gel followed by silver staining using a BIORAD Silver Stain Plus kit (No. 161-0449) as show in FIG. 5. […] The amount of protein added and eluted was determined by scanning the silver stained gel using a Alpha Imager 2200 gel imaging system.

Hsp90α (p97, HS9A_MOUSE) = biological target: T2, Hsp90α (p97, HS9A_MOUSE) (Mus musculus, UniProt P07901); test: Binding of mouse brain extract protein p97 (identified as Hsp90α) to Sulfolink-peptide affinity matrix, SDS-PAGE Coomassie stain; conditions: Coomassie stained gel, FIG. 1A
T2 construct: Total mouse brain from deeply anthesized adult mice is excised and flash frozen in liquid nitrogen; from tissue; host or cells: adult mouse brain, 13,200 rpm supernatant of homogenate
Procedure: as §1, with “The peptide affinity matrix was removed from the column to a 50 ml conical tube and stored as a 50% slurry in PBS containing 0.05% sodium azide at 4° C.” left out
Protein samples are made 1× with ImmunoPure Lane Marker Non-Reducing Sample Buffer (5×) (Pierce Biotechnology) and heated for 5 minutes at 95° C. Samples are separated on a 4-20% Linear Gradient Ready Gel (BIO-RAD Laboratories, Hercules, Calif., Product No. 161-1105). […] Specific antibody binding is detected using ECL Western Blotting System (Amersham Biosciences Corp., Piscataway, N.J., Product No. RPN2108). […] Chemiluminecence is detected using Kodak Biomax ML Scientific Imaging Film (Product No. 868-9358). […]

Compound | hepatotoxicity [1] | water / aqueous solubility [2] | amount of beta-COP binding the peptide matrix (beta-COP) | binding of Hsp90α to the peptide affinity column (recombinant human Hsp90α) | protein corresponding to Hsp90 molecular weight eluted with 600 mM NaCl, share of protein added (recombinant human Hsp90α) | amount of beta-COP bound by the di-serine control relative to the parent di-lysine peptide matrix (beta-COP) | other results
C=CCNC1=C2C[C@@H](C)C[C@H](OC)[C@H](O)[C@@H](C)/C=C(\C)[C@H](OC(N)=O)[C@@H](OC)/C=C\C=C(/C)C(=O)NC(=CC1=O)C2=O [Peptide 17-AAG, 17-(allylamino)-17-desmethoxygeldanamycin] | reduced hepatotoxicity | limited aqueous solubility | – | – | – | – | –
CYSLPGYLAKKILGA (also: coupled to Sulfolink matrix) [OTOF CTERM E47, C-terminus 14 amino acids of the brain otoferlin isoform with added N-terminal cysteine, coupled to Sulfolink matrix] | – | – | similar | does not bind | no eluted protein was detected | – | amount of beta-COP binding the peptide matrix (beta-COP; listed as E47): specific binding
CYSLPGYLASSILGA (peptide corresponding to the C-terminus of an otoferlin isoform with di-lysine replaced by di-serine) [672 BC1, E47 peptide control with the di-lysine replaced with di-serine, reference compound] | – | – | – | – | – | about half | –
CYSLPGYMVSSLLGA (peptide corresponding to the C-terminus of an otoferlin isoform with di-lysine replaced by di-serine) [670 CC1, E48 peptide control with the di-lysine replaced with di-serine, reference compound] | – | – | – | – | – | about a tenth | –
COC1=C2C[C@@H](C)C[C@H](OC)[C@H](O)[C@@H](C)/C=C(\C)[C@H](OC(N)=O)[C@@H](OC)/C=C\C=C(/C)C(=O)NC(=CC1=O)C2=O [geldanamycin] | hepatotoxicity | poor water solubility | – | – | – | – | –
CYSLPGYMVKKLLGA (also: coupled to Sulfolink matrix) [OTOF CTERM E48, C-terminus 14 amino acids of the cochlear otoferlin isoform with added N-terminal cysteine, coupled to Sulfolink matrix] | – | – | similar | specifically binds | Approximately 10% | – | amount of beta-COP binding the peptide matrix (beta-COP; listed as E48): specific binding; binding of a protein at approximately 97 kilo-daltons (p97, Hsp90α) to the peptide matrix (Hsp90α (p97, HS9A_MOUSE)): higher levels; binding of a protein at approximately 97 kilo-daltons (p97, Hsp90α) to the peptide matrix (Hsp90α (p97, HS9A_MOUSE); listed as E48): specific binding
